Experimental findings from US10981932B2, “Macrocyclic indole derivatives” (Bayer Aktiengesellschaft, priority 2016, dated 2021) are described below.

One series deals with MCL-1 (Homo sapiens, UniProt Q07820). In words: Protein-protein interaction assay MCL-1/Noxa BH3 peptide (MCL-1 assay), TR-FRET. It counts as binding. The note with it: MBP-MCL-1 / Noxa BH3-derived peptide, median. The essentials:
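Inhibition values were normalized between DMSO controls with all reagents and controls lacking MCL-1. The binding competition used 1 nM MBP-MCL-1 in pH 7 Tris buffer containing 50 mM KF and 100 mM NaCl, with a 10 min compound preincubation at 22 °C.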
(In general: In TR-FRET formats the signal depends on donor and acceptor labels being close together.)

For series [1], the system named is SUDHL5. The series can be described thus: Induction of caspase-3/7 activity (Caspase-Glo 3/7), SUDHL5. The series is classed as cell-based. The note with it: caspase-3/7 induction, SUDHL5 cells, 3 h treatment, median. The method in brief:
(§1)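 Apoptosis induction measured as caspase-3/7 activity (Caspase-Glo 3/7) in DLBCL lines after 3 h treatment at 37 °C; EC50 derived relative to the reference compound's maximal induction, with C0 fixed at 1.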

Series [2] relates to SUDHL10. The series can be described thus: Induction of caspase-3/7 activity (Caspase-Glo 3/7), SUDHL10. It counts as cell-based. The note with it: Homo sapiens, SU-DHL10, 3 h, caspase-3/7 induction, SUDHL10 cells, 3 h treatment; median. The method in brief:
as §1

In series [3] the test system is SUDHL5. In words: Anti-proliferative effect (CellTiter-Glo, 72 h), SUDHL5. The note with it: SUDHL5 cells, antiproliferation, median, read-out: Antiproli SUDHL5 [M] (median). The series is classed as cell-based. The essentials:
(§2)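 After seeding, one plate is read right away by CellTiter-Glo luminescence to fix time zero. The treated plates stay at 37 °C in humidified air for 72 h and are then measured with the same reagent and 10 min incubation.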
On the technique in general: In ATP-based viability assays light output follows the ATP content of the culture.

For series [4], the system named is SUDHL10. In words: Anti-proliferative effect (CellTiter-Glo, 72 h), SUDHL10. The series is classed as cell-based. The note with it: SUDHL10 cells, antiproliferation, median, read-out: Antiproli SUDHL10 [M] (median). As for the experimental part:
Assessment of the Anti-Proliferative Effect of Compounds in Different Cell Lines
The impact of compounds on the proliferation of different cell lines was assessed using the CellTiter-Glo® Luminescent Cell Viability reagent from Promega (G7573). Of note, SUDHL10 and SUDHL5 (DLBCL), NCI-H929 (Multiple Myeloma), A2780 (ovarian carcinoma) as well as MV-4-11(AML) cells are sensitive to MCL-1 inhibition.
In parallel, cells were plated in a reference (day 0) plate for time zero determination.
Rim wells were excluded. The cells were incubated for 72 h hours in a humidified incubator at 37° C. The day 0 plate was measured by adding 30 μl/well of CTG solution (CellTiter-Glo® Luminescent Cell Viability reagent, Promega G7573) to time zero wells in the reference plate followed by a 10 minutes incubation and luminescence reading at 0.1 ms, using the PHERAstar FS microplate reader (BMG Labtech).
After 72 h incubation, the treated plates were measured in the same way as the day 0 plate mentioned above.

The subject of the next series is A2780. The series can be described thus: Anti-proliferative effect (CellTiter-Glo, 72 h), A2780. The note with it: Homo sapiens, A2780, 72 h, A2780 cells, median, read-out: IC50 antiproliferation assay A2780 [M] (median). The series is classed as cell-based. The essentials: as §2
Series [5] deals with SUDHL5. The series can be described thus: Induction of cytotoxicity (CellTiter-Glo, 5 h), SUDHL5.
Series [6] has as its system SUDHL10. The series can be described thus: Induction of cytotoxicity (CellTiter-Glo, 5 h), SUDHL10. The note with it: Homo sapiens, SU-DHL10, 5 h.
The mark [7] stands for this setting: Homo sapiens, SU-DHL-5, 72 h, 72 h incubation.
Setting [8] is: Homo sapiens, SU-DHL10, 72 h, 72 h incubation.
[9] abbreviates: Homo sapiens, SU-DHL-5, 5 h, read-out: Cytotox SUDHL5 [M] (median), SUDHL5 cells, cytotoxicity induction, CellTiter-Glo, 5 h incubation, median.
Setting [10] is: read-out: Cytotox SUDHL10 [M] (median), SUDHL10 cells, cytotoxicity induction, CellTiter-Glo, 5 h incubation, median.

Structures are written as SMILES. Where a name gives a salt, the structure may show the parent alone. Some results are limits rather than exact numbers.

Chain of MCL-1 (Q07820 whole entry): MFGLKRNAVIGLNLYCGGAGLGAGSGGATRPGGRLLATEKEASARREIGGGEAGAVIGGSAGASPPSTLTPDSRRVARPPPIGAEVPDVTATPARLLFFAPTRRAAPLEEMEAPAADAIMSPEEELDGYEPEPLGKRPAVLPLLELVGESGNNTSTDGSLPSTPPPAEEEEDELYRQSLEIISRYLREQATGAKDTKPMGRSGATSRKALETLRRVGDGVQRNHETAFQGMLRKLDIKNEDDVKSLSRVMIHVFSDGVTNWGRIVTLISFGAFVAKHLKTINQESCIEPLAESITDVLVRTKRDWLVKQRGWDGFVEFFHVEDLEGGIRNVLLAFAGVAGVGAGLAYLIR

By EC50 is commonly meant the concentration at which the effect is half-maximal. Low readings indicate an effect from little substance, high ones a need for much substance. As for `Cc1ccc2c(CCCOc3cccc4ccccc34)c(C(=O)O)n3c2c1-c1c(C)nn(C)c1COCC=CC3` (racemic) [Example 038, (rac)-(E/Z)-1,3,4-trimethyl-7-[3-(1-naphthyloxy)propyl]-1,10,13,15-tetrahydropyrazolo[4′,3′:9,10][1,6]oxazacycloundecino[8,7,6-hi]indole-8-carboxylic Acid], the IC50 on MCL-1 is 0.00965 µM; in the series on SUDHL5 [3] (setting [7]) it was 1.64e-05 M; in the series with SUDHL10 [4] (setting [8]), 1.46e-05 M; with A2780, greater than 3.3e-05 M; in the series with SUDHL5 [5] (setting [9]) it was 1.46e-05 M; with SUDHL10 [6] (setting [10]) it was greater than 3.3e-05 M. Besides, the EC50 in the series on SUDHL5 [1] (Homo sapiens, SU-DHL-5, 3 h) is 13.9 µM; with SUDHL10 [2] it was greater than 33 µM.

Take `Cc1nn(C)c2c1-c1cccc3c(CCCOc4cccc5cc(Cl)ccc45)c(C(=O)O)n(c13)CCCCOC2` (racemic) [Example 040, (rac)-7-{3-[(6-chloronaphthalen-1-yl)oxy]propyl}-1,3-dimethyl-1,10,11,12,13,15-hexahydropyrazolo[4′,3′:9,10][1,6]oxazacycloundecino[8,7,6-hi]indole-8-carboxylic Acid]: the IC50 at MCL-1 is 0.0144 µM; in the series on SUDHL5 [3] (setting [7]) it was 1.33e-05 M; in the series with SUDHL10 [4] (setting [8]) it was 3.25e-06 M; in the series on A2780 it was 1.9e-05 M; in the series on SUDHL5 [5] (setting [9]), 1.66e-05 M; in the series with SUDHL10 [6] (setting [10]), greater than 3.3e-05 M. For the same compound, the EC50 with SUDHL5 [1] (Homo sapiens, SU-DHL-5, 3 h) is 21 µM; with SUDHL10 [2], greater than 33 µM.

Consider `CCc1c2c(nn1CCN1CCOCC1)COCCCCn1c(C(=O)O)c(CCCOc3cccc4ccccc34)c3cccc-2c31` (racemic) [Example 201, (rac)-3-ethyl-2-[2-(morpholin-4-yl)ethyl]-7-[3-(naphthalen-1-yloxy)propyl]-2,10,11,12,13,15-hexahydropyrazolo[4′,3′:9,10][1,6]oxazacycloundecino[8,7,6-hi]indole-8-carboxylic Acid], for which the IC50 was 0.00427 µM on MCL-1; 4.3e-06 M in the series on SUDHL5 [3] (setting [7]); 7.54e-06 M in the series with SUDHL10 [4] (setting [8]); 2.57e-06 M in the series with SUDHL5 [5] (setting [9]); 7.98e-06 M in the series with SUDHL10 [6] (setting [10]). The concentration for a half-maximal effect (EC50) in the series on SUDHL5 [1] (Homo sapiens, SU-DHL-5, 3 h) worked out at 2.53 µM; with SUDHL10 [2], 8.57 µM.

Regarding `COc1ccc(OCc2nn(C)c3c2-c2cccc4c(CCCOc5cccc6ccccc56)c(C(=O)O)n(c24)CCCCOC3)cc1` (single isomer, unassigned; enantiomer 1) [Example 320, 3-[(4-methoxyphenoxy)methyl]-1-methyl-7-[3-(naphthalen-1-yloxy)propyl]-1,10,11,12,13,15-hexahydropyrazolo[4′,3′:9,10][1,6]oxazacycloundecino[8,7,6-hi]indole-8-carboxylic Acid-N-ethylethanamine Salt (Enantiomer 1)], the IC50 was found to be 0.0226 µM on MCL-1; 5.43e-06 M with SUDHL5 [3] (72 h); 9.36e-06 M with SUDHL10 [4] (72 h); 1.41e-05 M in the series on A2780; 1.1e-05 M with SUDHL5 [5] (read-out: Cytotox SUDHL5 [M] (median), SUDHL5 cells, cytotoxicity induction, CellTiter-Glo, 5 h, median); 2.29e-05 M in the series with SUDHL10 [6] (read-out: Cytotox SUDHL10 [M] (median), SUDHL10 cells, cytotoxicity induction, CellTiter-Glo, 5 h, median). The same compound registered a concentration for a half-maximal effect (EC50) with SUDHL5 [1] of 13.8 µM.

Turning to `Cc1c2c(nn1CC(F)(F)F)COCCCCn1c(C(=O)O)c(CCCOc3cccc4ccccc34)c3cccc-2c31` [Example 241, 3-methyl-7-[3-(naphthalen-1-yloxy)propyl]-2-(2,2,2-trifluoroethyl)-210,11,12,13,15-hexahydropyrazolo[4′,3′:9,10][1,6]oxazacycloundecino[8,7,6-hi]indole-8-carboxylic Acid], the IC50 at MCL-1 came to 0.00751 µM; in the series on SUDHL5 [3] (setting [7]) it was 9.89e-06 M; in the series on A2780, 2.89e-05 M; in the series on SUDHL5 [5] (setting [9]), 4.64e-06 M; in the series on SUDHL10 [6] (setting [10]), 1.92e-05 M. In addition, the concentration giving a half-maximal response (EC50) is 3.75 µM in the series on SUDHL5 [1] (Homo sapiens, SU-DHL-5, 3 h) and 17.1 µM in the series on SUDHL10 [2].
